In the assay the test system is 695427-040-R-J1-PDC complex spheroids, viability percent T/C. Briefly: Anticancer human tumor 695427-040-R-J1-PDC patient-derived colon adenocarcinoma cell line growth inhibition [GQUAD]. Conditions: for viability, T/C: stronger effect = lower value. An excerpt:
DNA G-quadruplex Stabilizer Agents in Combinations in Complex Spheroids
A high-throughput screen of multi-cell type tumor spheroids was designed to identify active combinations of DNA G-quadruplex stabilizer agents and targeted small molecules. Complex spheroids include a stromal component modeled by human endothelial cells (HUVEC) and fibroblasts modeled by human mesenchymal stem cells (MSCs). The concentration ranges selected for each drug and investigational agent were based upon clinically achievable concentrations if the clinical Cmax of the agent was known.
Compounds. The drugs and investigational agents: pidnarulex (CX-5461; NSC782164), APTO-253 (NSC789042), BRACO-19 (NSC847499), peposertib (NSC802822), ceralasertib (NSC780249), elimusertib (NSC800525), camonsertib (NSC841442), AZD-1390 (NSC803789), olaparib (NSC753686), talazoparib (NSC767125), ART-558 (NSC835418), sotorasib (NSC818433), MRTX-1133 (NSC836407), SN-38 (NSC673596), topotecan (NSC609699), etoposide (NSC141540), doxorubicin (NSC123127), gemcitabine (NSC613327), 5-fluorouracil (NSC19893), paclitaxel (NSC125973), vemurafenib (NSC761431), panobinostat (NSC761190), R-306465 (JNJ-16241199; NSC773264), adavosertib (NSC754352), TP-3654 (NSC805149), carboplatin (NSC241240), KSQ-4279 (NSC840948), and staurosporine (NSC755774) were obtained from the National Cancer Institute (NCI) Developmental Therapeutics Program Chemical Repository (34). The FDA-approved anticancer drug set is available from the NCI Developmental Therapeutics Program. […] The stock solutions were prepared in dimethyl sulfoxide (DMSO, Sigma-Aldrich, St. Louis, MO, cat. D2650) at 800-fold the tested concentration and stored at -70 degrees C prior to their use. All drugs and investigational agents were tested over a range starting from a high concentration at or near the clinical Cmax and decreasing in half-log increments. If the clinical Cmax for an agent had not been determined, the highest concentration tested was 10 microM.
2.3 Cell Culture. All cells were maintained in an incubator at 37 degrees C and 5% CO2 with 95% humidity. The PDC lines were cultured according to standard operating procedures established by the NCI PDMR. All PDCs were thawed and cultured in Matrigel-coated flasks prepared with a working solution of 1X Ham's F-12 nutrient mix, without supplementation (Invitrogen, cat. 11765054), 100 U/mL penicillin-streptomycin (Invitrogen, cat. 15140122), and 2.5% Matrigel (Corning Inc., cat. 354248) for the first three passages. The 857933-349-R-J2-PDC line was cultured in 6C/Colon 1B media, which includes advanced DMEM/F-12 (Thermo Fisher Scientific, cat. 12634028), 10 mM HEPES (Thermo Fisher Scientific, cat. 15630080), 1X GlutaMAX supplement (Thermo Fisher Scientific, cat. 35050061), 0.1 mg/mL primocin (InvivoGen, cat. ant-pm-2), 10% defined fetal bovine serum, heat inactivated (HyClone Laboratories Inc., cat. SH30070.03HI), 50% L-WRN conditioned media (ATCC, cat. CRL-3276), 1.25 mM N-Acetyl-L-cysteine (Sigma-Aldrich, cat. A9165), 10 mM nicotinamide (Sigma-Aldrich, cat. N0636), 1X B-27 supplement (Thermo Fisher Scientific, cat. 17504044), 1X N-2 supplement (Thermo Fisher Scientific, cat. 17502048), 10 microM Y-27632 dihydrochloride (Tocris Bioscience, cat. 1254), and 50 ng/mL human EGF recombinant protein (Thermo Fisher Scientific, cat. PHG0311). The 485176-168-R4-J1-PDC line was cultured in Panc media, which includes all 6C/Colon 1B media components plus 100 ng/mL human FGF-10 (Thermo Fisher Scientific, cat. 100-26), 500 nM SB-431542 (Selleckchem, cat. S1067), and gastrin (Tocris, cat. 3006).
[…]

Experimental findings from PubChem BioAssay AID2060492 (Molecular Pharmacology Branch, DTP, NCI, 2025) are described below.

Where “and” joins values, the source holds several entries; their conditions need not be identical. Equal values may be shown once. Some results are limits rather than exact numbers.
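Further: spheroids exposed to compounds for seven days before readout.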

As to `COc1ncnc(C2CC2)c1-c1ncc2cnn(Cc3ccc(-c4nc(C(F)(F)F)cn4C(C)C)cc3)c2n1`, the viability, T/C by setting is: (compound 0.0316 µM) 86.9% and 97.4% and 103%; (compound 0.1 µM) 92.5% and 96.3% and 95.5%; (compound 0.316 µM) 93.3% and 102% and 94.6%; (compound 1 µM) 81.1% and 99.2% and 93%; (compound 3.16 µM) 71.3% and 107% and 93.5%; (compound 10 µM) 82% and 78% and 98%. Moreover, where the note is “curve of compound”, the IC50 is greater than 10 µM.
Take `CC[C@@]1(O)C(=O)OCc2c1cc1n(c2=O)Cc2cc3c(CN(C)C)c(O)ccc3nc2-1`: the viability, T/C reads like this: (compound 0.000999 µM) 93.2% and 113% and 101%; (compound 0.00316 µM) 97.2% and 103% and 94.8%; (compound 0.00999 µM) 109% and 96.7% and 103%; (compound 0.0316 µM) 93.2% and 102% and 89.2%; (compound 0.0999 µM) 81.3% and 103% and 88.3%; (compound 0.316 µM) 82.7% and 90.3% and 80.3%. Also, the concentration for half-maximal inhibition (IC50) (curve of compound) is greater than 0.316 µM.
Regarding `COc1ncnc(C2CC2)c1-c1ncc2cnn(Cc3ccc(-c4nc(C(F)(F)F)cn4C(C)C)cc3)c2n1` + CN(C)c1ccc(Nc2c3ccc(NC(=O)CCN4CCCC4)cc3nc3cc(NC(=O)CCN4CCCC4)ccc23)cc1, the IC50 is greater than 10 µM (curve of first compound, second compound 0.0316 µM); greater than 10 µM (curve of first compound, second compound 0.1 µM); greater than 10 µM (curve of first compound, second compound 0.316 µM); greater than 10 µM (curve of first compound, second compound 1 µM); greater than 10 µM (curve of first compound, second compound 3.16 µM); greater than 10 µM (curve of first compound, second compound 10 µM). Moreover, the viability, T/C reads like this: (second compound 0.0316 µM, first compound 0.0316 µM) 101%; (second compound 0.0316 µM, first compound 0.1 µM) 92.4%; (second compound 0.0316 µM, first compound 0.316 µM) 91.7%; (second compound 0.0316 µM, first compound 1 µM) 96.4%; (second compound 0.0316 µM, first compound 3.16 µM) 105%; (second compound 0.0316 µM, first compound 10 µM) 102%. The viability, T/C (second compound 0.1 µM, first compound 0.0316 µM) is 105%; the viability, T/C (second compound 0.1 µM, first compound 0.1 µM) was 95.4%; the viability, T/C (second compound 0.1 µM, first compound 0.316 µM) is 91.1%; the viability, T/C (second compound 0.1 µM, first compound 1 µM) was 93.2%; the viability, T/C (second compound 0.1 µM, first compound 3.16 µM) was 101%; the viability, T/C (second compound 0.1 µM, first compound 10 µM) was 101%. Further, the viability, T/C is 97.7% (second compound 0.316 µM, first compound 0.0316 µM); 97.5% (second compound 0.316 µM, first compound 0.1 µM); 88.9% (second compound 0.316 µM, first compound 0.316 µM); 94.3% (second compound 0.316 µM, first compound 1 µM); 96.1% (second compound 0.316 µM, first compound 3.16 µM); 83.1% (second compound 0.316 µM, first compound 10 µM). Besides, the viability, T/C reads like this: (second compound 1 µM, first compound 0.0316 µM) 96.7%; (second compound 1 µM, first compound 0.1 µM) 93.7%; (second compound 1 µM, first compound 0.316 µM) 91.5%; (second compound 1 µM, first compound 1 µM) 91.3%; (second compound 1 µM, first compound 3.16 µM) 101%; (second compound 1 µM, first compound 10 µM) 93.3%. Moreover, the viability, T/C (second compound 3.16 µM, first compound 0.0316 µM) is 93.9%; the viability, T/C (second compound 3.16 µM, first compound 0.1 µM) is 91.7%; the viability, T/C (second compound 3.16 µM, first compound 0.316 µM) was 84.9%; the viability, T/C (second compound 3.16 µM, first compound 1 µM) is 96.6%; the viability, T/C (second compound 3.16 µM, first compound 3.16 µM) was 99%; the viability, T/C (second compound 3.16 µM, first compound 10 µM) is 92.9%. The viability, T/C by setting is: (second compound 10 µM, first compound 0.0316 µM) 83.3%; (second compound 10 µM, first compound 0.1 µM) 80.6%; (second compound 10 µM, first compound 0.316 µM) 85.5%; (second compound 10 µM, first compound 1 µM) 80.8%; (second compound 10 µM, first compound 3.16 µM) 79.7%; (second compound 10 µM, first compound 10 µM) 75%.
Regarding `CCc1c2c(nc3ccc(O)cc13)-c1cc3c(c(=O)n1C2)COC(=O)[C@]3(O)CC`, the viability, T/C runs as follows: (compound 0.000999 µM) 94.6% and 102% and 82.8%; (compound 0.00316 µM) 74.4% and 96.6% and 88.9%; (compound 0.00999 µM) 82.1% and 85% and 83.3%; (compound 0.0316 µM) 73.2% and 80.9% and 61%; (compound 0.0999 µM) 54.9% and 68.1% and 33.5%; (compound 0.316 µM) 41.9% and 54.7% and 34.1%. Also, the IC50 (curve of compound) was 0.175 µM and > 0.316 µM and 0.0507 µM.

Usually viability, T/C stands for the ratio of treated to control. In general, IC50 refers to the point on the concentration scale where inhibition reaches its midpoint.
